These results are taken from patent US7473692B2, “Sulfonamide derivatives as D3-receptor ligands” (Richter Gedeon Vegyeszeti Gyar Rt., priority 2001, dated 2009).

Where a name gives a salt, the structure may show the parent alone.

As a reminder, the melting point is the temperature, or range, at which the solid turns liquid. As usually defined, the IC50 is the midpoint of a concentration-inhibition curve.

The target in series [1] is T1, rat recombinant D3 receptors expressed in Sf9 cells (Rattus norvegicus, UniProt P19020).
T1 construct: purchased Research Biochemical International D-181; host or cells: Sf9 cells
T1 sequence (P19020 whole entry): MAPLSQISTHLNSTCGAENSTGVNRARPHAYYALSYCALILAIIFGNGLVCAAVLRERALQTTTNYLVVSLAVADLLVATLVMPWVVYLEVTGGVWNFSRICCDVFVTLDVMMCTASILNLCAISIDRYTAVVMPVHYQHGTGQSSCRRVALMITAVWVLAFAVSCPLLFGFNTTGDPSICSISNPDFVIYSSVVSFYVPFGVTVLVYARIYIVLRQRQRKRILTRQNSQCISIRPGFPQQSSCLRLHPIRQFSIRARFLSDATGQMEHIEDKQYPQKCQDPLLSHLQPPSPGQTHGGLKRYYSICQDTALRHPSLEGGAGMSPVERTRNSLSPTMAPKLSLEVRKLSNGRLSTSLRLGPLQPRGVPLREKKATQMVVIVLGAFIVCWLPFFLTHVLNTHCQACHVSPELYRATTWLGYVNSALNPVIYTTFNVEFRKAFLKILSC
In words: D3 receptor binding ([3H]-spiperone). Conditions: [3H]-spiperone 0.4 nM; non-specific binding with haloperidol 10 μM. The method, then:
Binding study was carried out on rat recombinant D3 receptors expressed in Sf9 cells using [^3H]-spiperone (0.4 nM) as ligand and haloperidol (10 μM) for determination of non-specific binding.

Series [2] has as its target T2, D2 receptor, rat striatal tissue (Rattus norvegicus, UniProt P61169).
T2 construct: from tissue; host or cells: rat striatal tissue
In words: D2 receptor binding ([3H]-spiperone). Conditions: [3H]-spiperone 0.5 nM, non-specific binding with (±)-sulpiride 10 μM. The method, then: Binding of [^3H]-spiperone (0.5 nM) to rat striatal tissue was measured according to the method of Seeman (J. Neurochem., 1984, 43 221-235). The non-specific binding was determined in the presence of (±)-sulpiride (10 μM).

T2 sequence (P61169 whole entry): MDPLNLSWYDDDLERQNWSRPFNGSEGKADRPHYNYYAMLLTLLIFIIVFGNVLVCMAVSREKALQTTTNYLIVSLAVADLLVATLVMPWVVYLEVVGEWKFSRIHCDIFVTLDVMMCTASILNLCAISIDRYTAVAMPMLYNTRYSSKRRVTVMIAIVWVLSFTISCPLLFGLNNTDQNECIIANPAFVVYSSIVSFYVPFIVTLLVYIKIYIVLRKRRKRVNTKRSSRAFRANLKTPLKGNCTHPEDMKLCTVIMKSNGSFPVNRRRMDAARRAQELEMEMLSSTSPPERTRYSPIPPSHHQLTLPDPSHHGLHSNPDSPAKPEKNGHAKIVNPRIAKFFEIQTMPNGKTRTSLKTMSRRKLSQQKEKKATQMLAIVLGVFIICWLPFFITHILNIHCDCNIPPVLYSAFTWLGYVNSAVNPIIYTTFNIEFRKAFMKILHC

Regarding `COc1cc(-c2ccccc2)ccc1N1CCN(CC[C@H]2CC[C@H](NS(=O)(=O)N(C)C)CC2)CC1` (as salt: hydrochloride) [compound 70001488, Trans-N′-(4-{2-[4-(3-methoxy-biphenyl-4-yl)-piperazin-1-yl]-ethyl}-cyclohexyl)-N,N-dimethyl], the melting point was 243 to 246 °C. Turning to `CCCCS(=O)(=O)N[C@H]1CC[C@H](CCN2CCN(c3ccc(-c4ccccc4)cc3OC)CC2)CC1` [compound 70001485, Trans-N-(4-{2-[4-(3-methoxy-biphenyl-4-yl)-piperazin-1-yl]-ethyl}-cyclohexyl)-buthanesulfonamide], the IC50 in series [1] came to 5.5 nM; in series [2], 2590 nM.

On to `COc1cc(-c2ccccc2)ccc1N1CCN(CC[C@H]2CC[C@H](NS(=O)(=O)N(C)C)CC2)CC1` [compound 70001488, Trans-N′-(4-{2-[4-(3-methoxy-biphenyl-4-yl)-piperazin-1-yl]-ethyl}-cyclohexyl)-N,N-dimethyl], for which the IC50 in series [1] was found to be 4.3 nM; in series [2] it was 245 nM. The corresponding values for `N#Cc1cc(N2CCN(CC[C@H]3CC[C@H](NS(=O)(=O)c4ccc(Cl)cc4)CC3)CC2)cc(C(F)(F)F)c1` [compound 70001492, Trans-4-chloro-N-(4-{2-[4-(3-cyano-5-trifluoromethyl-phenyl)-piperazin-1-yl]-ethyl}-cyclohexyl)-benzenesulfonamide] are 2 nM and 65 nM. On the same counts, the results for `CCCCS(=O)(=O)N[C@H]1CC[C@H](CCN2CCC(Nc3cccc(C(F)(F)F)c3)CC2)CC1` [compound 70001588, Trans-N-(4-{2-[4-(3-trifluoromethyl-phenylamino)-piperidin-1-yl]-ethyl}-cyclohexyl)-buthanesulfonamide] are 2.5 nM and 102 nM. On the same counts, the results for `O=S(=O)(N[C@H]1CC[C@H](CCN2CCC(Nc3cccc(C(F)(F)F)c3)CC2)CC1)c1ccc(Cl)cc1` [compound 70001589, Trans-4-chloro-N-(4-{2-[4-(3-trifluoromethyl-phenylamino)-piperidin-1-yl]-ethyl}-cyclohexyl)-benzenesulfonamide] are 3 nM and 16 nM. In the case of `CCCCS(=O)(=O)N[C@H]1CC[C@H](CCN2CCN(c3cccc(C(F)(F)F)c3)CC2)CC1` [compound 70001596, Trans-N-(4-{2-[4-(3-trifluoromethyl-phenyl)-piperazin-1-yl]-ethyl}-cyclohexyl)-buthanesulfonamide], the figures for the IC50 in series [1] and in series [2] were 0.6 nM and 110 nM, respectively. Turning to `O=S(=O)(N[C@H]1CC[C@H](CCN2CCC(Cc3cccc(F)c3)CC2)CC1)c1ccc(Cl)cc1` [compound 70001686, Trans-4-chloro-N-(4-{2-[4-(3-fluoro-phenylmethyl)-piperidin-1-yl]-ethyl}-cyclohexyl)-benzenesulfonamide], the IC50 in series [1] came out at 3.9 nM; in series [2], 345 nM. On the same counts, the results for `N#Cc1cc(N2CCN(CC[C@H]3CC[C@H](NS(=O)(=O)c4ccc(Cl)s4)CC3)CC2)cc(C(F)(F)F)c1` [compound 70001766, Trans-5-chloro-N-(4-{2-[4-(3-cyano-5-trifluoromethyl-phenyl)-piperazin-1-yl]-ethyl}-cyclohexyl)-2-thiophenesulfonamide] are 5.3 nM and 128 nM.

With `CN(C)S(=O)(=O)N[C@H]1CC[C@H](CCN2CCN(c3cc(C#N)cc(C(F)(F)F)c3)CC2)CC1` [compound 70001788, Trans-N′-(4-{2-[4-(3-cyano-5-trifluoromethyl-phenyl)-piperazin-1-yl]-ethyl}-cyclohexyl)-N,N-dimethyl-sulfamide], the figures for the IC50 in series [1] and in series [2] were 1.5 nM and 290 nM, respectively. With `O=S(=O)(N[C@H]1CC[C@H](CCN2CCC(Oc3cccc(C(F)(F)F)c3)CC2)CC1)c1cccnc1` [compound 70001875, Trans-N-(4-{2-[4-(3-trifluoromethyl-phenoxy)-piperidin-1-yl]-ethyl}-cyclohexyl)-3-pyridinesulfonamide], the IC50 in series [1] came to 2.8 nM; in series [2], 66 nM. The corresponding values for `O=S(=O)(CCCN1CCOCC1)N[C@H]1CC[C@H](CCN2CCN(c3cccc(C(F)(F)F)c3)CC2)CC1` [compound 70001934, Trans-N-(4-{2-[4-(3-trifluoromethyl-phenyl)-piperazin-1-yl]-ethyl}-cyclohexyl)-4-morpholinepropanesulfonamide] are 1 nM and 109 nM. The corresponding values for `O=S(=O)(N[C@H]1CC[C@H](CCN2CCN(c3cccc(C(F)(F)F)c3)CC2)CC1)c1cccnc1` [compound 70001935, Trans-N-(4-{2-[4-(3-trifluoromethyl-phenyl)-piperazin-1-yl]-ethyl}-cyclohexyl)-3-pyridinesulfoamide] are 0.3 nM and 29 nM.
